85 molecules from paper PMC12040169 (PLOS Biology, 2025) can be followed below.

The viability is a read-out of living cells in per cent, often relative to untreated cells.

A short description of this data set: in vitro. The note with it: human, hela cells, % viability.
As for `O=C(CCCn1ccnc1)N1CCc2[nH]c3ccccc3c2C1` [CBK281872], the viability at 28.5 h, 10 µM amounted to 101%. As for `Cn1c(CCC(=O)NCC(C)(C)N2CCCCC2)nc2ccccc21` [CBK281877], the figure is 92.9%; as for `CC(C)(CNC(=O)Cn1cnc2ccccc21)N1CCCCC1` [CBK281879], 95.8%.

For the molecule `CCn1c(C)nc2cc(NC(=O)c3ccc(CN(C)C)cc3)ccc21` [CBK281880], the viability at 28.5 h, 10 µM worked out at 106%. As for `CCC(c1ccc(F)cc1)n1cncc1-c1cnn(C)c1` (stereo not shown) [CBK281883], the figure is 95.7%. Consider `CC(NC(=O)Cn1cnc2ccccc21)c1ccccn1` (stereo not shown) [CBK281884], for which the viability at 28.5 h, 10 µM worked out at 96.7%.

On to `Cc1nc2ccc(C(=O)NC(C)c3ccccn3)cc2s1` (stereo not shown) [CBK281890], for which the viability at 28.5 h, 10 µM turned out to be 94.6%. As for `O=C1CC[C@@H](C(=O)N2CCc3nc(-c4ccccc4F)sc3C2)N1` [CBK281891], the figure is 82.1%; as for `Cn1c(CN2CCN(C3CCCCC3)C(=O)C2)nc2ccccc21` [CBK281893], 90.9%.

Consider `Cc1cc(C(=O)NCCn2ccnc2C)nc2ccccc12` [CBK281894], for which the viability at 28.5 h, 10 µM stood at 101%. As for `Cc1cc(C(=O)NCCn2ccnc2C)c2ccccc2n1` [CBK281895], the figure is 100%. In the case of `Cn1nccc1CN1CCCC(COc2ccc(F)cc2)C1` (stereo not shown) [CBK281899] it was 95.2%; in that of `CN(CCN1CCCCC1)C(=O)Cn1ccnc1-c1ccccc1` [CBK281900], 91.3%; in that of `Cc1ncc(CN2CCCC(Cc3nc4ccccc4[nH]3)C2)s1` (stereo not shown) [CBK281902], 99.7%. Take `Cc1ccc(C2(C(=O)NC(C)c3ccccn3)CCOCC2)cc1` (stereo not shown) [CBK281903]: the viability at 28.5 h, 10 µM amounted to 90.5%. On to `CN(CCN1CCCCC1)C(=O)c1c2c(nn1C)CCCC2` [CBK281905], for which the viability at 28.5 h, 10 µM was found to be 102%. As for `Cc1oc2c(c1C(=O)N(C)CCN1CCCCC1)CCCC2` [CBK281907], the figure is 90.8%; as for `Cc1cc(CN(C)Cc2cnn(-c3ccc(Cl)cc3)c2)n[nH]1` [CBK281912], 99.3%; as for `Cc1cc(CN(C)Cc2c(C)nc3ccc(Cl)cn23)n[nH]1` [CBK281913], 108%. In the case of `O=C(c1cc[nH]n1)N1CCc2nc(-c3cccc(F)c3)sc2C1` [CBK281915] it was 84.9%. In the case of `Cc1nc(C(F)(F)F)ccc1C(=O)N(C)CCN1CCCCC1` [CBK281917] it was 87.3%; in that of `CN(C)CC(=O)N1CCc2nc(-c3ccccc3F)sc2C1` [CBK281918], 85.6%; in that of `Cc1nc2ccc(C(=O)N(C)CCN3CCCCC3)cc2s1` [CBK281919], 93.4%. Consider `CCN(C(=O)c1cc(C)nc2ccccc12)C1CCN(C)CC1` [CBK281920], for which the viability at 28.5 h, 10 µM turned out to be 106%. As for `CC(C)c1nnc(CCC(=O)N2CCC(c3ccccc3)C2)o1` (stereo not shown) [CBK281925], the figure is 89.3%; as for `Cc1ccc2cc(CNc3ccc4[nH]ncc4c3)c(=O)[nH]c2c1` [CBK281935], 86.1%; as for `O=C(NC1CCCC1)c1ncoc1-c1ccccc1` [CBK281937], 100%.

Take `CCc1ccc2nc3c(cc2c1)CNCCO3` [CBK281940]: the viability at 28.5 h, 10 µM was 91.6%. As to `O=C(c1ccccc1F)N1CCC(O)(c2ccc(F)cc2)CC1` [CBK281943], the viability at 28.5 h, 10 µM worked out at 80.9%. As for `O=C(Nc1ccc(F)cc1)N1C2CCC1CC(O)(c1cccnc1)C2` (stereo not shown) [CBK281946], the figure is 89.9%; as for `CN(C)Cc1ccc(C(=O)N2CCCC2(C)C(=O)N(C)C)cc1` (stereo not shown) [CBK281955], 90%; as for `Cc1cc(C(=O)N(C)CC2(C)COC2)nc2ccccc12` [CBK281956], 90.2%. `CC1CCN(S(=O)(=O)N2CCCC2c2cccc(F)c2)CC1` (stereo not shown) [CBK281957]: the viability at 28.5 h, 10 µM is 93.2%. In the case of `Cc1c(CN2CCCC2(C)C(=O)NC2CCCC2)cnn1C` (stereo not shown) [CBK281960] it was 108%.

For `O=C1CN(Cc2ccc3ccccc3n2)CCN1C1CCCC1` [CBK281961], the viability at 28.5 h, 10 µM came out at 88.6%. In the case of `Cc1nccn1CCNC(=O)CCc1cn(C)c2ccccc12` [CBK281962] it was 86.1%; in that of `CN(CC1(C)COC1)C(=O)Cc1cccc2cccnc12` [CBK281963], 91.7%; in that of `Cc1ccn2c(CN3CCCC(Cn4ccnc4C)C3)c(C)nc2c1` (stereo not shown) [CBK281964], 86.6%. In the case of `Cc1nccn1CC1CCCN(Cc2ccnc3ccccc23)C1` (stereo not shown) [CBK281966] it was 84.7%; in that of `Cc1cccc(CCNC(=O)C2CN(C(=O)C3CCN(C)CC3)C2)c1` [CBK281967], 98.4%; in that of `Cc1nn(C)cc1CN1CCC(C(=O)NCCc2ccccc2)C1` (stereo not shown) [CBK281968], 111%. For `CN(C)C(=O)C1CN(C(=O)C(C)(C)c2ccccc2F)C1` [CBK281970], the viability at 28.5 h, 10 µM turned out to be 113%.

In the case of `Cc1nn(C)cc1-c1cncn1CCCn1ccnc1C(C)C` [CBK281972], the viability at 28.5 h, 10 µM came out at 81.6%.

For `Cc1nccn1CCC1CCN(C(=O)CC2CCCCO2)CC1` (stereo not shown) [CBK281974], the viability at 28.5 h, 10 µM turned out to be 84.3%.

With `Cc1nccn1CCNC(=O)CCc1nc2ccccc2n1C` [CBK281978], the viability at 28.5 h, 10 µM amounted to 95.3%.

Take `Cc1nccn1CCNC(=O)c1ccccc1Cn1cccn1` [CBK281979]: the viability at 28.5 h, 10 µM is 101%.

As to `CC(C)(C)NC(=O)Cn1cncc1-c1ccc2c(c1)CC(C)(C)O2` [CBK281980], the viability at 28.5 h, 10 µM is 113%.

On to `CCN1CCC(CC(=O)NCCn2ccnc2C)CC1` [CBK281984], for which the viability at 28.5 h, 10 µM is 108%. Turning to `Cc1nn(C)cc1-c1cncn1Cc1ccccc1CN(C)C` [CBK281985], the viability at 28.5 h, 10 µM worked out at 102%. As for `O=C(CCCn1ccnc1)Nc1ccc(OC2CCCC2)cc1` [CBK281986], the figure is 92.3%; as for `Cc1nn(C)cc1-c1cncn1C(CCN(C)C)c1ccccc1` (stereo not shown) [CBK281987], 92.3%. As for `Cc1nccn1CCC1CCN(C(=O)CCCn2ccnc2)CC1` [CBK281988], the figure is 95.3%; as for `Cc1cc(CN(C)Cc2ccc(-n3ccnc3C)cc2)n[nH]1` [CBK281989], 97.6%. In the case of `Cc1nccn1CCN(C)C(=O)c1ccc2c(c1)ncn2C` [CBK281993] it was 98.8%; in that of `CCN(C(=O)CCc1nc2ccccc2n1C)C1CCN(C)CC1` [CBK281994], 89.9%; in that of `COc1ccccc1C1CCCN1Cc1c(C)nc2ccccn12` (stereo not shown) [CBK281995], 91.9%. For `Cc1cnn(CC(=O)N2CCCC(COc3ccccc3F)C2)c1` (stereo not shown) [CBK281999], the viability at 28.5 h, 10 µM is 102%. As for `Cc1nn(C)c(C)c1CN(C)C(=O)CCC(C)N1CCCC1` (stereo not shown) [CBK282001], the figure is 101%; as for `CN(C)CC1CCCN(C(=O)C2C3CCCCC32)C1` (stereo not shown) [CBK282002], 82.3%; as for `Cc1cc(N(C)C)cc(C2CCCN(C(=O)c3cccc(F)c3)C2)n1` (stereo not shown) [CBK282003], 95.1%.

Take `Cc1cc(S(=O)(=O)NCC(C)n2nc(C)c(C)c2C)ccc1F` (stereo not shown) [CBK282010]: the viability at 28.5 h, 10 µM worked out at 87.4%. In the case of `O=C(c1ccccc1F)N1CCN(C(=O)[C@@H]2C[C@@H]3C=C[C@H]2C3)CC1` [CBK282011] it was 89.1%; in that of `CSc1nnc(C2CCCN2C(=O)[C@@H]2C[C@@H]3C=C[C@H]2C3)n1C` (stereo partly shown) [CBK282012], 79.8%.

Take `CN1CCN(C(=O)c2cccc(-n3cccn3)c2)C(c2ccccc2)C1` (stereo not shown) [CBK282013]: the viability at 28.5 h, 10 µM stood at 90.5%. As for `CN1CCN(C(=O)CCC2CCCO2)C(c2ccccc2)C1` (stereo not shown) [CBK282015], the figure is 101%; as for `CC(Cn1cc(Cl)cn1)C(=O)N1CCN(C)CC1c1ccccc1` (stereo not shown) [CBK282016], 111%. As for `CCn1nc(C(C)C)cc1C(=O)N1CCN(C)CC1c1ccccc1` (stereo not shown) [CBK282025], the figure is 100%; as for `CC(C(=O)N1CCCC(COc2ccc(F)cc2)C1)n1ccnc1` (stereo not shown) [CBK282027], 85.8%. In the case of `CCc1nccn1CCC(=O)NC(c1ccc(C)cc1)c1cccnc1` (stereo not shown) [CBK282032], the viability at 28.5 h, 10 µM is 103%. As for `O=C(CCCc1ccccn1)N(Cc1ccccn1)C1CCCC1` [CBK282033], the figure is 99.9%; as for `COC(C)CN(C)C(=O)c1cc2cc(C)ccc2nc1C` (stereo not shown) [CBK282036], 86.5%. Regarding `COc1ccc2oc(C(=O)N(C)CC(C)OC)c(C)c2c1` (stereo not shown) [CBK282037], the viability at 28.5 h, 10 µM was 94.4%. As for `Cc1c(CN2CCC(N(C)CCN(C)C)CC2)oc2ccccc12` [CBK282038], the figure is 86.1%; as for `CCn1cc(CN2CCN(C(=O)c3csc(C(C)C)c3)CC2)cn1` [CBK282044], 88.1%. As for `CCCc1cc(CNC(=O)CN2CCCC(C)C2)on1` (stereo not shown) [CBK282045], the figure is 99.8%. In the case of `CCCc1cc(CNC(=O)c2cc(C3CC3)nn2C)on1` [CBK282048] it was 102%; in that of `Cc1ccc(CCNC(=O)c2snnc2C)cc1C` [CBK282051], 89.6%; in that of `COc1ccc2oc(C(=O)NC(C)(C)CN3CCCCC3)cc2c1` [CBK282053], 93.8%. As for `CCN1CCCCC1CNC(=O)Cn1nc(C)cc1C` (stereo not shown) [CBK282057], the viability at 28.5 h, 10 µM was determined as 98.6%. For the molecule `COc1ccc(C(=O)N2CCN3C(=O)CCC32C)s1` (stereo not shown) [CBK282058], the viability at 28.5 h, 10 µM was found to be 98.4%. As for `CCCC(C(=O)NC(C)(C)CN1CCCCC1)n1nc(C)cc1C` (stereo not shown) [CBK282061], the figure is 94.8%. In the case of `Cc1ccccc1OCC1CCCN(C(=O)C2CC(=O)OC2(C)C)C1` (stereo not shown) [CBK282062] it was 92.7%; in that of `CN1CCCC(NC(=O)CCCOc2ccccc2F)C1` (stereo not shown) [CBK282072], 101%; in that of `CC(=O)NCCn1cc2c(n1)[C@H]1CN(C(=O)c3ccccc3)C[C@H]1C2` [CBK282073], 111%. For the molecule `CC(Cn1cccn1)C(=O)N1CCc2sccc2C1C` (stereo not shown) [CBK282074], the viability at 28.5 h, 10 µM came to 103%.
